Laboratory results: patent publication US20100137305A1, “AMINOPYRIMIDINES USEFUL AS KINASE INHIBITORS” (VERTEX PHARMACEUTICALS INCORPORATED, priority 2008, published 2010)
Like-named read-outs stand apart in the source and are kept apart here.

Assays:
Aurora-2 (Aurora A) = target: T1, Aurora-2 (Aurora A) (Homo sapiens, UniProt O14965); assay: Aurora-2 (Aurora A) Inhibition Assay, coupled enzyme assay; format: biochemical; settings: 400 μM ATP, 30° C.; read-out: Aurora A kinase activity Ki
T1 sequence (O14965 1-403): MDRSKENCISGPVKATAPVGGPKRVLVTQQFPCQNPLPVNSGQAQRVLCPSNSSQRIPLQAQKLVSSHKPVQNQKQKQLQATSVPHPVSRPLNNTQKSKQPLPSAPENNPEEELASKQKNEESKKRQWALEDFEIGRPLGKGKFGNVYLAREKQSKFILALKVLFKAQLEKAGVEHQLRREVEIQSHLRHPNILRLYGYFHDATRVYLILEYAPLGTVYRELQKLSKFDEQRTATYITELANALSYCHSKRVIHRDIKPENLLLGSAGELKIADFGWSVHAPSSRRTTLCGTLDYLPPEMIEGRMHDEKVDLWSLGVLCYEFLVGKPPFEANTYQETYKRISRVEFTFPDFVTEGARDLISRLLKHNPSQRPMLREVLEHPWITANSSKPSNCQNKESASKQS
Description: Compounds were screened for their ability to inhibit Aurora-2 using a standard coupled enzyme assay (Fox et al., Protein Sci., (1998) 7, 2249). Assays were carried out in a mixture of 100 mM Hepes (pH7.5), 10 mM MgCl2, 1 mM DTT, 25 mM NaCl, 2.5 mM phosphoenolpyruvate, 300 μM NADH, 30 μg/ml pyruvate kinase and 10 μg/ml lactate dehydrogenase. Final substrate concentrations in the assay were 400 μM ATP (Sigma Chemicals) and 570 μM peptide (Kemptide, American Peptide, Sunnyvale, Calif.). Assays were carried out at 30° C. and in the presence of 40 nM Aurora-2.
An assay stock buffer solution was prepared containing all of the reagents listed above, with the exception of Aurora-2 and the test compound of interest. 55 μl of the stock solution was placed in a 96 well plate followed by addition of 2 μl of DMSO stock containing serial dilutions of the test compound (typically starting from a final concentration of 7.5 μM). The plate was preincubated for 10 minutes at 30° C. and the reaction initiated by addition of 10 μl of Aurora-2. Initial reaction rates were determined with a Molecular Devices SpectraMax Plus plate reader over a 10 minute time course. IC50 and Ki data were calculated from non-linear regression analysis using the Prism software package (GraphPad Prism version 3.0cx for Macintosh, GraphPad Software, San Diego Calif., USA).

[1] = target: N-terminally truncated (Δ 27) Abl kinase (Homo sapiens, UniProt P00519); assay: Abl Kinase Activity Inhibition Assay, coupled enzyme system; format: biochemical; settings: 110 μM ATP, 30° C.
Description: Compounds were screened for their ability to inhibit N-terminally truncated (Δ 27) Abl kinase activity using a standard coupled enzyme system (Fox et al., Protein Sci., 7, pp. 2249 (1998)). Reactions were carried out in a solution containing 100 mM HEPES (pH 7.5), 10 mM MgCl2, 25 mM NaCl, 300 μM NADH, 1 mM DTT and 3% DMSO. Final substrate concentrations in the assay were 110 μM ATP (Sigma Chemicals, St Louis, Mo.) and 70 μM peptide (EAIYAAPFAKKK, American Peptide, Sunnyvale, Calif.). Reactions were carried out at 30° C. and 21 nM Abl kinase. Final concentrations of the components of the coupled enzyme system were 2.5 mM phosphoenolpyruvate, 200 μM NADH, 60 μg/ml pyruvate kinase and 20 μg/ml lactate dehydrogenase.
An assay stock buffer solution was prepared containing all of the reagents listed above with the exception of ATP and the test compound of interest. The assay stock buffer solution (60 μl) was incubated in a 96 well plate with 2 μl of the test compound of interest at final concentrations typically spanning 0.002 μM to 30 μM at 30° C. for 10 min. Typically, a 12 point titration was prepared by serial dilutions (from 1 mM compound stocks) with DMSO of the test compounds in daughter plates. The reaction was initiated by the addition of 5 μl of ATP (final concentration 110 μM). Rates of reaction were obtained using a Molecular Devices Spectramax plate reader (Sunnyvale, Calif.) over 10 min at 30° C. The Ki values were determined from the residual rate data as a function of inhibitor concentration using nonlinear regression (Prism 3.0, Graphpad Software, San Diego, Calif.).

Colo205 cells = assay: Analysis of Cell Proliferation, 3H thymidine incorporation; format: cell-based; settings: Homo sapiens
Description: Compounds were screened for their ability to inhibit cell proliferation using Colo205 cells obtained from ECACC and using the assay shown below.
Colo205 cells were seeded in 96 well plates and serially diluted compound was added to the wells in duplicate. Control groups included untreated cells, the compound diluent (0.1% DMSO alone) and culture medium without cells. The cells were then incubated for 72 or 96 hrs at 37C in an atmosphere of 5% CO2/95% humidity.
To measure proliferation, 3 h prior to the end of the experiment 0.5 μCi of 3H thymidine was added to each well. Cells were then harvested and the incorporated radioactivity counted on a Wallac microplate beta-counter. Dose response curves were calculated using either Prism 3.0 (GraphPad) or SoftMax Pro 4.3.1 LS (Molecular Devices) software.

Aurora-1 (Aurora B) = Aurora-1 (Aurora B) (Homo sapiens, UniProt Q96GD4); assay: Aurora-1 (Aurora B) Inhibition Assay (radiometric); format: biochemical; settings: 800 μM ATP; read-out: Aurora B kinase activity Ki
Sequence of Aurora-1 (Aurora B) (Q96GD4 whole entry): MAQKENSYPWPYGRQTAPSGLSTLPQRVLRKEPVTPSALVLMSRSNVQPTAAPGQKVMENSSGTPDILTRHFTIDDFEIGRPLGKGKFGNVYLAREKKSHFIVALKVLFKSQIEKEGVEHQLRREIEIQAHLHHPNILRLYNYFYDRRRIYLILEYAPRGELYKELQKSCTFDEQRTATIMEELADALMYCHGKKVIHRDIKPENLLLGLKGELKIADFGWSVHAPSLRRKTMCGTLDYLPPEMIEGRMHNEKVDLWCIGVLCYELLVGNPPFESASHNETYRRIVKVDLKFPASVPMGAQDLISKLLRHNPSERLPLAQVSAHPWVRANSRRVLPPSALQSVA
Description: An assay buffer solution was prepared which consisted of 25 mM HEPES (pH 7.5), 10 mM MgCl2, 0.1% BSA and 10% glycerol. A 22 nM Aurora-B solution, also containing 1.7 mM DTT and 1.5 mM Kemptide (LRRASLG), was prepared in assay buffer. To 22 μL of the Aurora-B solution, in a 96-well plate, was added 2 μl of a compound stock solution in DMSO and the mixture allowed to equilibrate for 10 minutes at 25° C. The enzyme reaction was initiated by the addition of 16 μl stock [γ-^33P]-ATP Pi-ATP solution (˜20 nCi/μL) prepared in assay buffer, to a final assay concentration of 800 μM. The reaction was stopped after 3 hours by the addition of 16 μL 500 mM phosphoric acid and the levels of ^33P incorporation into the peptide substrate were determined by the following method.
A phosphocellulose 96-well plate (Millipore, Cat no. MAPHNOB50) was pre-treated with 100 μL of a 100 mM phosphoric acid prior to the addition of the enzyme reaction mixture (40 μL). The solution was left to soak on to the phosphocellulose membrane for 30 minutes and the plate subsequently washed four times with 200 μL of a 100 mM phosphoric acid. To each well of the dry plate was added 30 μL of Optiphase ‘SuperMix’ liquid scintillation cocktail (Perkin Elmer) prior to scintillation counting (1450 Microbeta Liquid Scintillation Counter, Wallac). Levels of non-enzyme catalyzed background radioactivity were determined by adding 16 μL of the 500 mM phosphoric acid to control wells, containing all assay components (which acts to denature the enzyme), prior to the addition of the [γ-^33P]-ATP solution. Levels of enzyme catalyzed ^33P incorporation were calculated by subtracting mean background counts from those measured at each inhibitor concentration. For each Ki determination 8 data points, typically covering the concentration range 0-10 μM compound, were obtained in duplicate (DMSO stocks were prepared from an initial compound stock of 10 mM with subsequent 1:2.5 serial dilutions). Ki values were calculated from initial rate data by non-linear regression using the Prism software package (Prism 3.0, Graphpad Software, San Diego, Calif.).

[2] = target: T2, T315I mutant of human Abl (Homo sapiens, UniProt P00519, T315I); assay: Mutant Abl Kinase (T315I) Activity Inhibition Assay (Upstate, radiometric); format: biochemical
T2 construct: purchased Upstate Cell Signaling Solutions (Dundee, UK)

[3] = COLO 205, 96 h, 96 hours, read-out: IC50 cell proliferation after 96 hours
[4] = COLO 205, 72 h, 72 hours, read-out: IC50 cell proliferation after 72 hours

| SMILES | Ki (Aurora-2 (Aurora A)) [nM] | Ki [1] [nM] | IC50 (Colo205 cells; [3]) [nM] | Ki (Aurora-1 (Aurora B)) [nM] | Ki [2] [nM] | IC50 (Colo205 cells; [4]) [nM] |
| --- | --- | --- | --- | --- | --- | --- |
| Cc1cc(Nc2cc(N3CC[C@H](N(C)C)C3)nc(Sc3ccc(NC(=O)c4ccccc4C(F)(F)F)cc3)n2)[nH]n1 [Compound I-70] | ≤ 10 | – | – | ≤ 10 | – | ≤ 25 |
| Cc1cc(Nc2cc(N3CCC(N4CCN(C)CC4)CC3)nc(Sc3ccc(NC(=O)CC(F)(F)F)cc3)n2)[nH]n1 [Compound I-73] | ≤ 10 | – | – | 10 to 50 | – | ≤ 25 |
| Cc1cc(Nc2cc(N3CC[C@@H](F)C3)nc(Sc3ccc(NC(=O)c4ccccc4C(F)(F)F)cc3)n2)[nH]n1 [Compound I-74] | ≤ 10 | – | – | ≤ 10 | – | ≤ 25 |
| Cc1cc(Nc2cc(N3CCC(N4CCOCC4)CC3)nc(Sc3ccc(NC(=O)C4CC4(F)F)cc3)n2)[nH]n1 (centres unmarked) [Compound I-75] | ≤ 10 | – | – | 10 to 50 | – | 25 to 125 |
| Cc1cc(Nc2cc(N3CCC(F)C3)nc(Sc3ccc(NC(=O)c4ccccc4C(F)(F)F)cc3)n2)[nH]n1 (centres unmarked) [Compound I-76] | ≤ 10 | – | – | ≤ 10 | – | 25 to 125 |
| Cc1cc(Nc2cc(N3CCC(N4CCCC4)CC3)nc(Sc3ccc(NC(=O)CC4CCCC4)cc3)n2)n[nH]1 [Compound I-77] | ≤ 10 | – | – | 10 to 50 | – | 25 to 125 |
| Cc1cc(Nc2cc(N3CCC(F)C3)nc(Sc3ccc(NC(=O)CC(F)(F)F)cc3)n2)[nH]n1 (centres unmarked) [Compound I-78] | – | < 25 | – | – | – | – |
| Cc1cc(Nc2cc(N3CCC4(CC3)OCCO4)nc(Sc3ccc(NC(=O)CC(F)(F)F)cc3)n2)[nH]n1 [Compound I-79] | ≤ 10 | – | – | ≤ 10 | – | 25 to 125 |
| Cc1cc(Nc2cc(N3CCC(F)(F)CC3)nc(Sc3ccc(NC(=O)CC(F)(F)F)cc3)n2)[nH]n1 [Compound I-84] | ≤ 10 | – | – | 10 to 50 | – | 25 to 125 |

More lines, now with the values ahead:

| Ki (Aurora-2 (Aurora A)) [nM] | Ki [1] [nM] | IC50 (Colo205 cells; [3]) [nM] | Ki (Aurora-1 (Aurora B)) [nM] | Ki [2] [nM] | IC50 (Colo205 cells; [4]) [nM] | SMILES |
| --- | --- | --- | --- | --- | --- | --- |
| ≤ 10 | < 25 | – | – | – | – | Cc1cnc(Nc2cc(N3CCC(N4CCOCC4)CC3)nc(Sc3ccc(NC(=O)C4CC4)cc3)n2)s1 [Compound I-4] |
| ≤ 10 | 25 to 100 | 50 to 200 | – | – | – | Cc1cnc(Nc2cc(N3CC[C@H](O)C3)nc(Sc3ccc(NC(=O)C4CC4)cc3)n2)s1 [Compound I-12] |
| ≤ 10 | < 25 | 50 to 200 | – | – | – | CCC(=O)Nc1ccc(Sc2nc(Nc3cc(C)n[nH]3)cc(N3CC[C@@H](N(C)C)C3)n2)cc1 [Compound I-24] |
| ≤ 10 | < 25 | ≤ 50 | 10 to 50 | – | – | Cc1cnc(Nc2cc(N3CCC(N4CCCC4)CC3)nc(Sc3ccc(NC(=O)C4CC4)cc3)n2)s1 [Compound I-38] |
| ≤ 10 | < 25 | ≤ 50 | 10 to 50 | – | – | CCN[C@H]1CCN(c2cc(Nc3cc(C)n[nH]3)nc(Sc3ccc(NC(=O)CC)cc3)n2)C1 [Compound I-39] |
| ≤ 10 | < 25 | ≤ 50 | 10 to 50 | – | – | CCC(=O)Nc1ccc(Sc2nc(Nc3cc(C)[nH]n3)cc(N3CC[C@H](N(C)C)C3)n2)cc1 [Compound I-46] |
| ≤ 10 | < 25 | ≤ 50 | – | – | – | CN[C@H]1CCN(c2cc(Nc3ncc(C)s3)nc(Sc3ccc(NC(=O)C4CC4)cc3)n2)C1 [Compound I-52] |
| ≤ 10 | – | ≤ 50 | – | 200 to 500 | – | CCC(=O)Nc1ccc(Sc2nc(Nc3cc(C)n[nH]3)cc(N3CC[C@H](N4CCCC4)C3)n2)cc1 [Compound I-55] |
| ≤ 10 | < 25 | ≤ 50 | 10 to 50 | – | – | CCC(=O)Nc1ccc(Sc2nc(Nc3cc(C)n[nH]3)cc(N3CCC(N4[C@H](C)CC[C@H]4C)CC3)n2)cc1 [Compound I-57] |
| ≤ 10 | < 25 | ≤ 50 | 10 to 50 | – | – | CCC(=O)Nc1ccc(Sc2nc(Nc3cc(C)n[nH]3)cc(N3CC4CN(C(C)C)CC4C3)n2)cc1 (centres unmarked) [Compound I-60] |
| ≤ 10 | – | – | ≤ 10 | – | ≤ 25 | Cc1cc(Nc2cc(N3CCC(N4CCOCC4)CC3)nc(Sc3ccc(NC(=O)C4(C(F)(F)F)CC4)cc3)n2)[nH]n1 [Compound I-67] |
